Reference: ChEMBL document CHEMBL6120983, “Synthesis and Structure-Activity Relationship of Covalent Inhibitors of SARS-CoV-2 Papain-Like Protease with Antiviral Potency” (Bioorg Med Chem Lett, 2025)

Assays:
[1] = system: SARS-CoV-2; assay: Antiviral activity against SARS CoV-2 infected in human HeLa-ACE2 assessed as reduction in viral replication incubated for 24 hrs; type: functional; details: Severe acute respiratory syndrome coronavirus 2, HeLa-ACE2
[2] = target: Replicase polyprotein 1ab (Severe acute respiratory syndrome coronavirus 2, UniProt P0DTD1); assay: Inhibition of SARS-CoV-2 papain-like protease using Z-Arg-Leu-Arg-Gly-Gly-AMC as substrate incubated for 15 mins
[3] = Cytotoxicity against human A549-ACE2 cells assessed as reduction in cell viability; type: toxicity, cell-based
[4] = Intrinsic clearance in mouse liver microsomes; type: ADME, Microsome; details: read-out: CLH
[5] = Cmax in dog at 20 mg/kg, po; type: ADME, organism-based, Canis lupus familiaris; details: in vivo
[6] = Half life in dog at 2 mg/kg, iv; type: ADME, organism-based, Canis lupus familiaris; details: in vivo
[7] = Oral bioavailability in dog at 20 mg/kg; type: ADME, organism-based, Canis lupus familiaris; details: in vivo
[8] = AUC (0 to last) in dog at 20 mg/kg, po; type: ADME, organism-based, Canis lupus familiaris; details: in vivo
[9] = MRT (0 to last) in dog at 20 mg/kg, po; type: ADME, organism-based, Canis lupus familiaris; details: in vivo
[10] = Half life in dog at 20 mg/kg, po; type: ADME, organism-based, Canis lupus familiaris; details: in vivo
[11] = Volume of distribution in dog at 2 mg/kg, iv; type: ADME, organism-based, Canis lupus familiaris; details: in vivo
[12] = Ratio of CC50 for cytotoxicity against human A549-ACE2 cells assessed as reduction in cell viability to EC90 for antiviral activity against SARS CoV-2 infected in human HeLa-ACE2 assessed as reduction in viral replication; type: toxicity, cell-based
[13] = Tlast in dog at 2 mg/kg, iv; type: ADME, organism-based, Canis lupus familiaris; details: in vivo
[14] = Clearance in dog at 20 mg/kg, po; type: ADME, organism-based, Canis lupus familiaris; details: in vivo
[15] = Clearance in dog at 2 mg/kg, iv; type: ADME, organism-based, Canis lupus familiaris; details: in vivo
[16] = Cmax in dog at 2 mg/kg, iv; type: ADME, organism-based, Canis lupus familiaris; details: in vivo
[17] = AUC (0 to last) in dog at 2 mg/kg, iv; type: ADME, organism-based, Canis lupus familiaris; details: in vivo
[18] = Tlast in dog at 20 mg/kg, po; type: ADME, organism-based, Canis lupus familiaris; details: in vivo
[19] = Plasma protein binding in human; type: ADME, cell-free; details: read-out: PPB (converted)
[20] = MRT (0 to last) in dog at 2 mg/kg, iv; type: ADME, organism-based, Canis lupus familiaris; details: in vivo
[21] = Lipophilicity, logD of compound; type: physicochemical; details: octanol/water

C[C@@H](NC(=O)c1ccccc1CCC(=O)NNC(=O)COC(F)(F)F)c1cccc2ccccc12
EC90 [1]: > 9.6 µM
IC50 [2]: 52.9 µM
CC50 ([3]; A549-ACE2 cells): > 99 µM

CCOC(=O)/C=C/C(=O)NNC(=O)CCc1ccccc1C(=O)N[C@H](C)c1cccc2ccccc12
EC90 [1]: 0.31 µM
IC50 [2]: 0.19 µM
CC50 ([3]; a549-ace2): 44.7 µM

C[C@@H](NC(=O)c1ccccc1CCC(=O)NNC(=O)/C=C/C(=O)O)c1cccc2ccccc12
EC90 [1]: > 9.6 µM
IC50 [2]: 2.6 µM
CC50 ([3]; A549-ACE2 cells): > 99 µM

CC(C)OC(=O)/C=C/C(=O)NNC(=O)CCc1ccccc1C(=O)N[C@H](C)c1cccc2ccccc12
EC90 [1]: 0.56 µM
IC50 [2]: 0.24 µM
CC50 ([3]; a549-ace2): 59.3 µM

C[C@@H](NC(=O)c1ccccc1CCC(=O)NNC(=O)/C=C/C(=O)OCc1ccc2ccccc2n1)c1cccc2ccccc12
EC90 [1]: 1.14 µM
IC50 [2]: 0.45 µM
CC50 ([3]; a549-ace2): 13.6 µM

COc1ccc(COC(=O)/C=C/C(=O)NNC(=O)CCc2ccccc2C(=O)N[C@H](C)c2cccc3ccccc23)cc1OC
EC90 [1]: 0.26 µM
IC50 [2]: 1.01 µM
CC50 ([3]; A549-ACE2 cells): > 99 µM

CCOC(=O)/C=C/C(=O)NNC(=O)CCc1ccccc1C(=O)N[C@H](C)c1cccc(-c2cccs2)c1
microsomal CLint [4]: 618 µL/min/mg
Cmax [5]: 20 ng/mL
half-life [6]: 6.48 min
EC90 [1]: 0.21 µM
bioavailability [7]: 1.9%
AUC(0-t) [8]: 62 ng·h/mL
MRT last [9]: 176 min
half-life [10]: 157 min
Vd [11]: 0.681 L/kg
selectivity ratio [12]: 56.7
Tlast [13]: 1 h
CL/F [14]: 5090 mL/min/kg
IC50 [2]: 0.14 µM
clearance [15]: 95.1 mL/min/kg
Cmax [16]: 3220 ng/mL
AUC(0-t) [17]: 362 ng·h/mL
Tlast [18]: 8 h
fraction unbound [19]: 0.014
MRT last [20]: 7.02 min

CCCCOC(=O)/C=C/C(=O)NNC(=O)CCc1ccccc1C(=O)N[C@H](C)c1cccc2ccccc12
EC90 [1]: 0.18 µM
IC50 [2]: 0.24 µM
CC50 ([3]; A549-ACE2 cells): > 99 µM

C=C(CC(=O)NNC(=O)CCc1ccccc1C(=O)N[C@H](C)c1cccc2ccccc12)C(=O)OC
EC90 [1]: 8.3 µM
IC50 [2]: 17.9 µM
CC50 ([3]; a549-ace2): 6.1 µM

COC(=O)/C=C/C(=O)NNC(=O)CCc1ccccc1C(=O)N[C@H](C)c1cccc(-c2cncnc2)c1
EC90 [1]: 9.55 µM
IC50 [2]: 0.35 µM
CC50 ([3]; A549-ACE2 cells): > 99 µM

COC(=O)/C=C/C(=O)NNC(=O)CCc1ccccc1C(=O)N[C@H](C)c1cccc(-c2cn[nH]c2)c1
EC90 [1]: 3.58 µM
IC50 [2]: 0.21 µM
CC50 ([3]; A549-ACE2 cells): > 99 µM

C[C@@H](NC(=O)c1ccccc1CCC(=O)NNC(=O)/C=C/C(=O)OCc1nccs1)c1cccc2ccccc12
EC90 [1]: 9.23 µM
IC50 [2]: 0.34 µM
CC50 ([3]; a549-ace2): 16 µM

C[C@@H](NC(=O)c1ccccc1CCC(=O)NNC(=O)/C=C/C(=O)OCC1CCCC1)c1cccc2ccccc12
EC90 [1]: 0.31 µM
IC50 [2]: 1.62 µM
CC50 ([3]; a549-ace2): 69.5 µM

C[C@@H](NC(=O)c1ccccc1CCC(=O)NNC(=O)/C=C/C#N)c1cccc2ccccc12
EC90 [1]: 15.2 µM
IC50 [2]: 1.9 µM
CC50 ([3]; a549-ace2): 13.1 µM

CC(=O)/C=C/C(=O)NNC(=O)CCc1ccccc1C(=O)N[C@H](C)c1cccc2ccccc12
EC90 [1]: 12.9 µM
IC50 [2]: 27.2 µM
CC50 ([3]; A549-ACE2 cells): > 99 µM

COC(=O)/C=C\C(=O)NNC(=O)CCc1ccccc1C(=O)N[C@H](C)c1cccc2ccccc12
EC90 [1]: 0.71 µM
CC50 ([3]; a549-ace2): 34.6 µM

COC(=O)/C=C/CNC(=O)CCc1ccccc1C(=O)N[C@H](C)c1cccc2ccccc12
EC90 [1]: > 9.6 µM
IC50 [2]: 26.2 µM
CC50 ([3]; a549-ace2): 87.9 µM

COC(=O)/C=C/C(=O)NNC(=O)CCc1ccccc1C(=O)N[C@H](C)c1cccc(C2=CCOCC2)c1
EC90 [1]: 1.24 µM
IC50 [2]: 0.29 µM
CC50 ([3]; a549-ace2): 48.4 µM

C[C@@H](NC(=O)c1ccccc1CCC(=O)NNC(=O)/C=C/C(=O)OCc1ccccc1)c1cccc2ccccc12
EC90 [1]: 0.78 µM
IC50 [2]: 0.52 µM
CC50 ([3]; a549-ace2): 98.9 µM

C[C@@H](NC(=O)c1ccccc1CCC(=O)NNC(=O)C(F)Cl)c1cccc2ccccc12 (stereo not given in full)
EC90 [1]: > 9.6 µM
IC50 [2]: 15.8 µM
CC50 ([3]; A549-ACE2 cells): > 99 µM

C[C@@H](NC(=O)c1ccccc1CCC(=O)NNC(=O)/C=C/C(=O)OCCC(F)(F)F)c1cccc2ccccc12
EC90 [1]: 1.26 µM
IC50 [2]: 0.25 µM
CC50 ([3]; a549-ace2): 61.9 µM

C[C@@H](NC(=O)c1ccccc1CCC(=O)NNC(=O)/C=C/C(=O)OC(C)(C)C)c1cccc2ccccc12
EC90 [1]: 1.75 µM
IC50 [2]: 0.24 µM
CC50 ([3]; a549-ace2): 64 µM

C[C@@H](NC(=O)c1ccccc1CCC(=O)NNC(=O)/C=C/C(=O)OC1CCC1)c1cccc2ccccc12
EC90 [1]: 0.27 µM
IC50 [2]: 0.33 µM
CC50 ([3]; a549-ace2): 64.8 µM

C[C@@H](NC(=O)c1ccccc1CCC(=O)NNC(=O)/C=C/C(=O)OC1CCCCC1)c1cccc2ccccc12
EC90 [1]: 0.41 µM
IC50 [2]: 0.96 µM
CC50 ([3]; A549-ACE2 cells): > 99 µM

C[C@@H](NC(=O)c1ccccc1CCC(=O)NNC(=O)CC#N)c1cccc2ccccc12
EC90 [1]: > 9.6 µM
IC50 [2]: 9.5 µM
CC50 ([3]; A549-ACE2 cells): > 99 µM

CNC(=O)/C=C/C(=O)NNC(=O)CCc1ccccc1C(=O)N[C@H](C)c1cccc2ccccc12
EC90 [1]: > 9.6 µM
IC50 [2]: 16.2 µM
CC50 ([3]; A549-ACE2 cells): > 99 µM

COC(=O)/C=C/C(=O)NNC(=O)CCc1ccccc1C(=O)N[C@H](C)c1cccc2ccccc12
microsomal CLint [4]: 144 µL/min/mg
Cmax [5]: 84 ng/mL
half-life [6]: 6 min
EC90 [1]: 0.49 µM
bioavailability [7]: 2.9%
AUC(0-t) [8]: 91 ng·h/mL
MRT last [9]: 97.2 min
half-life [10]: 72.6 min
logD [21]: 3
Vd [11]: 0.742 L/kg
Tlast [13]: 1 h
CL/F [14]: 3710 mL/min/kg
clearance [15]: 107 mL/min/kg
CC50 ([3]; a549-ace2): 29.9 µM
Cmax [16]: 2840 ng/mL
AUC(0-t) [17]: 315 ng·h/mL
Tlast [18]: 8 h
fraction unbound [19]: 0.049
MRT last [20]: 6.84 min

CC(=O)C(=O)NNC(=O)CCc1ccccc1C(=O)N[C@H](C)c1cccc2ccccc12
EC90 [1]: > 9.6 µM
IC50 [2]: 37.3 µM
CC50 ([3]; A549-ACE2 cells): > 99 µM

COC(=O)/C=C/C(=O)NNC(=O)CCc1ccccc1C(=O)N[C@H](C)c1cccc(-c2cc3ccccc3o2)c1
EC90 [1]: 0.12 µM
IC50 [2]: 0.25 µM
CC50 ([3]; a549-ace2): 59 µM

CC#CC(=O)NNC(=O)CCc1ccccc1C(=O)N[C@H](C)c1cccc2ccccc12
EC90 [1]: > 9.6 µM
IC50 [2]: 11.3 µM
CC50 ([3]; a549-ace2): 68.9 µM

C[C@@H](NC(=O)c1ccccc1CCC(=O)NNC(=O)/C=C/C(=O)N(C)C)c1cccc2ccccc12
EC90 [1]: > 9.6 µM
IC50 [2]: 18.5 µM
CC50 ([3]; A549-ACE2 cells): > 99 µM

C[C@@H](NC(=O)c1ccccc1CCC(=O)NNC(=O)/C=C/c1ncco1)c1cccc2ccccc12
EC90 [1]: > 9.6 µM
IC50 [2]: 44.5 µM
CC50 ([3]; A549-ACE2 cells): > 99 µM

C[C@@H](NC(=O)c1ccccc1CCC(=O)NNC(=O)/C=C/C(=O)OCc1ncccn1)c1cccc2ccccc12
EC90 [1]: 3.03 µM
IC50 [2]: 0.35 µM
CC50 ([3]; a549-ace2): 30.1 µM
